# Experimental data: a melting point compilation (Tetko et al.; mined from patent text by program, amines drawn as free bases though some values may be those of a salt)
row,Compound,melting point
1,CCOC(=O)C1(O)CC(c2ccncc2)=NNC1=O (stereo not given),160 to 163 °C
2,Clc1ccc(CSCc2ccc(Cl)cc2)cc1,42 to 44 °C
3,CC1CN(c2ccc(C(N)=O)cc2)CCN1Cc1cn2cc(Cl)ccc2n1 (racemic),202 to 204 °C
4,COC(=O)CCCCCCC1=C(OC)C(=O)CC1=O,103 °C
5,CCCCCCCCCCCCCCCCCCC(N)C(N)=O (stereo not given),103 to 104 °C
6,CC(=O)c1ccc2c(c1)C(N1CCCC1=O)=CC(C)(C)O2,106 to 108 °C
7,CN(c1ccc(C(=O)O)cc1)c1cc2c3c(c1)CCCC3CCC2,288 to 289 °C
8,O=Cc1cc2cc(O)c(Cl)c(Cl)c2s1,197 to 198 °C
9,CCOC(=O)c1cc(Cl)ccc1N,80 °C
10,CCS(=O)(=O)Nc1cc(-c2ncnc(NOC)c2Cl)c(F)cc1C#N,188 to 189 °C
11,CC(=O)OC1CC2CCC3C(CCC4(C)C3CC(N3CCN(C)CC3)C4OC(C)=O)C2(C)CC1N1CCCCC1 (stereo not given),95 to 98 °C
12,O=C(c1ccc(Br)cc1)N1CCN(CCCN2CCN(C(=O)c3ccc(Br)cc3)CC2)CC1,170 to 173 °C
13,CCOC(=O)C1=C(N)NC(C)=C(C(C)=O)C1c1cccc([N+](=O)[O-])c1 (stereo not given),217 °C
14,CC(=O)Nc1c(C(N)=O)n[nH]c1C(C)C,162 to 164 °C
15,CC1(C)Cc2cccc(S(N)(=O)=O)c2S1,102 to 104 °C
16,CCn1cc(C(=O)O)c(=O)c2cc([N+](=O)[O-])c(-c3cc(C)nc(C)c3)cc21,289 to 291 °C
17,CCN(CC)c1ccc(C2(c3ccc(N(C)C)cc3)OC(=O)c3c(Cl)c(Cl)c(Cl)c(Cl)c32)c(N(CC)CC)c1 (stereo not given),174 to 176 °C

# Now from value to compound:
row,melting point,Compound
1,154 to 156 °C,COc1c(C)cc(-c2c3ccccc3c(C)c3sc4ccccc4c23)cc1C
2,220 to 224 °C,N#Cc1c(N2CCCN(c3ccccn3)CC2)cc[nH]c1=S
3,72 to 76 °C,NCCCNc1nc2c(NCc3ccccc3)ncnc2n1C1OC(CO)C(O)C1O (stereo not given)
4,111 to 116 °C,Brc1ccc2c3c(cccc13)C(NCCCCCCCCCCCCn1ccnc1)=N2
5,193 °C,COC(=O)c1ccc(Cl)c(C#N)c1
6,290 to 291 °C,COc1cc2c(Nc3ccc(C)c(O)c3)ncnc2cc1OCc1ccncn1
7,186 to 192 °C,Cc1cc(C)nc(NC(=O)NS(=O)(=O)c2ccccc2S(=O)(=O)N(C)OCc2ccccc2)n1
8,187 to 192 °C,Cc1nc2c(O[C@@H]3c4ccccc4C[C@H]3O)cccn2c1C=O (relative stereo)
9,218 to 219 °C,COc1ccc(NC(=O)Nc2ccccc2)cc1NC(=S)Nc1cc(Cl)cc(Cl)c1
10,126 to 128 °C,Nc1ccc(OCc2ccccc2)c2cnsc12
11,159 to 160 °C,O=S(=O)(NC(c1ccc(F)cc1)c1ccnn1-c1ccc(F)cc1)c1ccc(Cl)s1 (stereo not given)
12,83 to 85 °C,Clc1cc(-c2ccccc2)nc2sccc12
13,130 °C,Cc1ccc(S(=O)(=O)N2[C@@H](C(N)=O)CC[C@H]2c2ccccc2)cc1 (racemic)
14,101 to 103 °C,COc1ccc(C2=NN(CCCCCCNCC(O)c3ccc(N)c(C#N)c3)C(=O)C3CCCCC23)cc1OC (stereo not given)
15,208 to 209 °C,Cc1c(C(=O)N[C@H](C)[C@](O)(Cn2cncn2)c2ccc(F)cc2F)cnn1-c1ccc(F)cc1F
16,196 to 198 °C,c1ccc2c(c1)ccn2Nc1ncnc2c1ncn2-n1ccc2ccccc21
17,140 to 141 °C,COc1ccc2c(c1)C(C(=O)O)c1cccnc1CO2 (stereo not given)
18,235 to 243 °C,Cc1c[nH]c2c([N+](=O)[O-])cccc2c1=O
19,285 to 290 °C,O=C1Nc2ccc(Br)cc2C1c1ncnc2nn(C3CCCCC3)cc12 (stereo not given)
20,45 to 72 °C,CCCC1CCC(O)(c2ccc(-c3ccccc3)c(F)c2)CC1 (stereo not given)
21,263 to 264 °C,Oc1cc(O)cc(CN/C=C2\CN=Cc3ccc(Br)cc32)c1
22,242 to 245 °C,N#Cc1cnc2c(oc3ccccc32)c1Nc1cccc(Br)c1
23,73 to 75 °C,COc1ccc2c(ccn2S(=O)(=O)c2ccccc2)c1
